Test results published in patent publication US12497394B2, “Fused-cyclic pyrazolone formamide compound and preparation method therefor, pharmaceutical composition and use thereof” (SHANGHAI INSTITUTE OF MATERIA MEDICA, CHINESE ACADEMY OF …, priority 2018, dated 2025).
Values joined by “and” are separate entries in the source; they are usually repeats but may differ in a detail not shown here. Equal entries are not always repeated.

What was measured:
[1] = target: receptor tyrosine kinase c-Met (Homo sapiens, UniProt P08581); assay: In vitro c-Met kinase inhibitory activity; format: biochemical; details: two values per compound; for inhibition at 0.001 µM / inhibition at 0.01 µM / inhibition at 0.1 µM: read-out: c-Met Inhibitory rate (%)
Chain of receptor tyrosine kinase c-Met (P08581 25-1390): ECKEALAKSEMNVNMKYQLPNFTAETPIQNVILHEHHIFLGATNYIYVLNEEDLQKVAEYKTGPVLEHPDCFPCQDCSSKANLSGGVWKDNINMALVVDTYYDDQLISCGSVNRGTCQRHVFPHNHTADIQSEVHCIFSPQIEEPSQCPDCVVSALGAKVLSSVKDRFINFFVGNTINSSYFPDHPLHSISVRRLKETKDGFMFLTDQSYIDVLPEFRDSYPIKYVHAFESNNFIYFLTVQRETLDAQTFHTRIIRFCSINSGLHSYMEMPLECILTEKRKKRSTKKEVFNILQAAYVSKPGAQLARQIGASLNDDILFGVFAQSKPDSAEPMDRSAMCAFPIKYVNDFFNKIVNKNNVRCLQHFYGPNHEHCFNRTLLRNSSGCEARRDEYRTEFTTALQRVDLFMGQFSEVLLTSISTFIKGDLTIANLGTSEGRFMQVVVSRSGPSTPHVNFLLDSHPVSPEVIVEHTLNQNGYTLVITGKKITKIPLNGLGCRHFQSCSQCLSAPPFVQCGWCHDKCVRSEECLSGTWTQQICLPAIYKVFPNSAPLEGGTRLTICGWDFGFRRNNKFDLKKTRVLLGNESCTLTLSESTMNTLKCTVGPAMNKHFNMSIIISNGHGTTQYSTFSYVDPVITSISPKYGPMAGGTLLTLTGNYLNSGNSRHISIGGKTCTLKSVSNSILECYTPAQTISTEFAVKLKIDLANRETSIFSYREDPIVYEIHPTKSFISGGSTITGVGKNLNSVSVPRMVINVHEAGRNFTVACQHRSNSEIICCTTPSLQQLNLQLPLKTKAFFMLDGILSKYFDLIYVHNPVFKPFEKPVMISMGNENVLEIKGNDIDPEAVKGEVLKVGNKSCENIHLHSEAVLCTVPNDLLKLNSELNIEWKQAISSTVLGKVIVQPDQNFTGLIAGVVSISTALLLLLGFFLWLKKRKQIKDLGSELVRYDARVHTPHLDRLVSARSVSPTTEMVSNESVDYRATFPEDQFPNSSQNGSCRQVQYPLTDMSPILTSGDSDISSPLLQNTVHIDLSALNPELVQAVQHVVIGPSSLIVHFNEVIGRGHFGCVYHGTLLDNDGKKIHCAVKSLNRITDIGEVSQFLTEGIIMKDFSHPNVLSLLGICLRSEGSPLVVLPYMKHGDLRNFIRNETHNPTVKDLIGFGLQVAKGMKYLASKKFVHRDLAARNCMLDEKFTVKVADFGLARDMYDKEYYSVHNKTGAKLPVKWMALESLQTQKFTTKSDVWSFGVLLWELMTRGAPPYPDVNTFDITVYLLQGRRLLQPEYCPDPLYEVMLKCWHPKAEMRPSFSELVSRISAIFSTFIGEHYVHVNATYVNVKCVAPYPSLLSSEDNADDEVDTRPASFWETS
Source text: Experimental Example 3: Study of In Vitro c-Met Kinase Inhibitory Activity
Since the screening results of 369 kinase profiles of compound DC621044 has shown that the compound has a certain inhibitory activity on c-Met. We further screened some compounds for their inhibitory activity on c-Met kinase.

BaF3/TEL-AXL cells = assay: Proliferation of BaF3/TEL-AXL cells; format: cell-based; details: two values per compound; for inhibition at 0.001 µM / inhibition at 0.01 µM / inhibition at 0.1 µM: BaF3/TEL-AXL, read-out: BaF3/TEL-AXL proliferation Inhibitory rate (%)
Source text: Experimental Example 4: Effect of the Compound on the Proliferation Effect of BaF3/TEL-AXL Cells
Based on the above-mentioned enzyme activity research results, we further explored the effect of the compound on cell proliferation mediated by receptor tyrosine kinase AXL.

COc1cc2ncnc(Oc3ccc(NC(=O)c4c5n(n(-c6cc(F)ccc6F)c4=O)CCCC5)cc3)c2cc1OC [DC621022, 1-(2,5-difluorophenyl)-N-(4-((6,7-dimethoxyquinazoline-4-yl)oxy)phenyl)-2-oxo-1,2,4,5,6,7-hexahydropyrazolo[1,5-a]pyridine-3-formamide]
c-Met Inhibitory rate (%) ([1]; 1 nM, 0.001 µM): 51.1%
inhibition at 0.001 µM ([1]; 1 nM): 35.4%
c-Met Inhibitory rate (%) ([1]; 10 nM, 0.01 µM): 57.0%
inhibition at 0.01 µM ([1]; 10 nM): 41.7%
c-Met Inhibitory rate (%) ([1]; 100 nM, 0.1 µM): 96.5%
inhibition at 0.1 µM ([1]; 100 nM): 81.9%
BaF3/TEL-AXL proliferation Inhibitory rate (%) (BaF3/TEL-AXL cells; 1 nM, 0.001 µM): 48.3%
BaF3/TEL-AXL proliferation Inhibitory rate (%) (BaF3/TEL-AXL cells; 10 nM, 0.01 µM): 58.0%
BaF3/TEL-AXL proliferation Inhibitory rate (%) (BaF3/TEL-AXL cells; 100 nM, 0.1 µM): 80.9%
inhibition at 0.001 µM (BaF3/TEL-AXL cells; 1 nM): 66.3%
inhibition at 0.01 µM (BaF3/TEL-AXL cells; 10 nM): 71.8%
inhibition at 0.1 µM (BaF3/TEL-AXL cells; 100 nM): 83.2%

COc1cc2ncnc(Oc3ccc(NC(=O)c4c5n(n(-c6cc(F)ccc6F)c4=O)CCCC5)cc3F)c2cc1OC [DC621023, 1-(2,5-difluorophenyl)-N-(4-((6,7-dimethoxyquinazoline-4-yl)oxy)-3-fluorophenyl)-2-oxo-1,2,4,5,6,7-hexahydropyrazolo[1,5-a]pyridine-3-formamide]
c-Met Inhibitory rate (%) ([1]; 1 nM, 0.001 µM): 60.9%
inhibition at 0.001 µM ([1]; 1 nM): 58.9%
c-Met Inhibitory rate (%) ([1]; 10 nM, 0.01 µM): 92.3%
inhibition at 0.01 µM ([1]; 10 nM): 80.9%
c-Met Inhibitory rate (%) ([1]; 100 nM, 0.1 µM): 100%
inhibition at 0.1 µM ([1]; 100 nM): 99.2%
BaF3/TEL-AXL proliferation Inhibitory rate (%) (BaF3/TEL-AXL cells; 1 nM, 0.001 µM): 62.2% and 41.4%
BaF3/TEL-AXL proliferation Inhibitory rate (%) (BaF3/TEL-AXL cells; 10 nM, 0.01 µM): 67.6%
BaF3/TEL-AXL proliferation Inhibitory rate (%) (BaF3/TEL-AXL cells; 100 nM, 0.1 µM): 65.0%
inhibition at 0.01 µM (BaF3/TEL-AXL cells; 10 nM): 66.5%
inhibition at 0.1 µM (BaF3/TEL-AXL cells; 100 nM): 76.8%

O=C(Nc1ccc(Oc2ncnc3[nH]cc(-c4ccccc4)c23)c(F)c1)c1c2n(n(-c3cc(F)ccc3F)c1=O)CCCC2 [DC621055, 1-(2,5-difluorophenyl)-N-(3-fluoro-4-((5-phenyl-7H-pyrrolo[2,3-d]pyrimidin-4-yl)oxy)phenyl)-2-oxo-1,2,4,5,6,7-hexahydropyrazolo[1,5-a]pyridine-3-formamide]
c-Met Inhibitory rate (%) ([1]; 1 nM, 0.001 µM): 30.8% and 53.9%
c-Met Inhibitory rate (%) ([1]; 10 nM, 0.01 µM): 74.2%
inhibition at 0.01 µM ([1]; 10 nM): 68.2%
c-Met Inhibitory rate (%) ([1]; 100 nM, 0.1 µM): 100%
inhibition at 0.1 µM ([1]; 100 nM): 96%

COc1cc2ncnc(Oc3ccc(NC(=O)c4c5n(n(-c6ccc(F)cc6)c4=O)CCCC5)c(F)c3)c2cc1OC [DC621059, N-(4-((6,7-dimethoxyquinazoline-4-yl)oxy)-2-fluorophenyl)-1-(4-fluorophenyl)-2-oxo-1,2,4,5,6,7-hexahydropyrazolo[1,5-a]pyridine-3-formamide]
BaF3/TEL-AXL proliferation Inhibitory rate (%) (BaF3/TEL-AXL cells; 1 nM, 0.001 µM): 78.3%
BaF3/TEL-AXL proliferation Inhibitory rate (%) (BaF3/TEL-AXL cells; 10 nM, 0.01 µM): 82.7%
BaF3/TEL-AXL proliferation Inhibitory rate (%) (BaF3/TEL-AXL cells; 100 nM, 0.1 µM): 84.2%
inhibition at 0.001 µM (BaF3/TEL-AXL cells; 1 nM): 68.4%
inhibition at 0.01 µM (BaF3/TEL-AXL cells; 10 nM): 71.4%
inhibition at 0.1 µM (BaF3/TEL-AXL cells; 100 nM): 83.7%

COc1cc2ncnc(Oc3ccc(NC(=O)c4c5n(n(-c6cc(F)ccc6F)c4=O)CCCC5)c(F)c3)c2cc1OC [DC621053, 1-(2,5-difluorophenyl)-N-(4-((6,7-dimethoxyquinazoline-4-yl)oxy)-2-fluorophenyl)-2-oxo-1,2,4,5,6,7-hexahydropyrazolo[1,5-a]pyridine-3-formamide]
c-Met Inhibitory rate (%) ([1]; 10 nM, 0.01 µM): 68.5%
inhibition at 0.01 µM ([1]; 10 nM): 50.9%
c-Met Inhibitory rate (%) ([1]; 100 nM, 0.1 µM): 98.7%
inhibition at 0.1 µM ([1]; 100 nM): 92.8%
BaF3/TEL-AXL proliferation Inhibitory rate (%) (BaF3/TEL-AXL cells; 1 nM, 0.001 µM): 56.7%
BaF3/TEL-AXL proliferation Inhibitory rate (%) (BaF3/TEL-AXL cells; 10 nM, 0.01 µM): 71.6%
BaF3/TEL-AXL proliferation Inhibitory rate (%) (BaF3/TEL-AXL cells; 100 nM, 0.1 µM): 84.2%
inhibition at 0.001 µM (BaF3/TEL-AXL cells; 1 nM): 65.3%
inhibition at 0.01 µM (BaF3/TEL-AXL cells; 10 nM): 67.5%
inhibition at 0.1 µM (BaF3/TEL-AXL cells; 100 nM): 83.8%

COCCOc1cc2ncnc(Oc3ccc(NC(=O)c4c5n(n(-c6ccc(F)cc6)c4=O)CCCC5)cc3C(F)(F)F)c2cc1OCCOC [DC621102, N-(4-((6,7-bis(2-methoxyethoxy)quinazolin-4-yl)oxy)-3-trifluoromethylphenyl)-1-(4-fluorophenyl)-2-oxo-1,2,4,5,6,7-hexahydropyrazolo[1,5-a]pyridine-3-formamide]
c-Met Inhibitory rate (%) ([1]; 1 nM, 0.001 µM): 17.2%
inhibition at 0.001 µM ([1]; 1 nM): 25.6%
c-Met Inhibitory rate (%) ([1]; 10 nM, 0.01 µM): 77.2% and 53.4%
c-Met Inhibitory rate (%) ([1]; 100 nM, 0.1 µM): 93.9%
inhibition at 0.1 µM ([1]; 100 nM): 99.1%

COc1cc2ncnc(Oc3ccc(NC(=O)c4c5n(n(-c6ccccc6F)c4=O)CCCC5)cc3F)c2cc1OC [DC621034, N-(4-((6,7-dimethoxyquinazoline-4-yl)oxy)-3-fluorophenyl)-1-(2-fluorophenyl)-2-oxo-1,2,4,5,6,7-hexahydropyrazolo[1,5-a]pyridine-3-formamide]
c-Met Inhibitory rate (%) ([1]; 1 nM, 0.001 µM): 34.8% and 63.9%
c-Met Inhibitory rate (%) ([1]; 10 nM, 0.01 µM): 66.5%
inhibition at 0.01 µM ([1]; 10 nM): 48.3%
c-Met Inhibitory rate (%) ([1]; 100 nM, 0.1 µM): 97.0%
inhibition at 0.1 µM ([1]; 100 nM): 97.5%

COc1cc2ncnc(Oc3ccc(NC(=O)c4c5n(n(-c6ccccc6)c4=O)CCCC5)cc3F)c2cc1OC [DC621011, N-(4-((6,7-dimethoxyquinazoline-4-yl)oxy)-3-fluorophenyl)-2-oxo-1-phenyl-1,2,4,5,6,7-hexahydropyrazolo[1,5-a]pyridine-3-formamide]
c-Met Inhibitory rate (%) ([1]; 10 nM, 0.01 µM): 89.2%
inhibition at 0.01 µM ([1]; 10 nM): 74.4%
c-Met Inhibitory rate (%) ([1]; 100 nM, 0.1 µM): 100%
inhibition at 0.1 µM ([1]; 100 nM): 86.6%
BaF3/TEL-AXL proliferation Inhibitory rate (%) (BaF3/TEL-AXL cells; 10 nM, 0.01 µM): 56.1%
BaF3/TEL-AXL proliferation Inhibitory rate (%) (BaF3/TEL-AXL cells; 100 nM, 0.1 µM): 83.9%
inhibition at 0.01 µM (BaF3/TEL-AXL cells; 10 nM): 60.5%
inhibition at 0.1 µM (BaF3/TEL-AXL cells; 100 nM): 84.8%

O=C(Nc1ccc(Oc2ncnc3[nH]cc(-c4ccccc4)c23)c(F)c1)c1c2n(n(-c3ccccc3)c1=O)CCCC2 [DC621052, N-(3-fluoro-4-((5-phenyl-7H-pyrrolo[2,3-d]pyrimidin-4-yl)oxy)phenyl)-2-oxo-1-phenyl-1,2,4,5,6,7-hexahydropyrazolo[1,5-a]pyridine-3-formamide]
c-Met Inhibitory rate (%) ([1]; 1 nM, 0.001 µM): 43.0%
inhibition at 0.001 µM ([1]; 1 nM): 32.7%
c-Met Inhibitory rate (%) ([1]; 10 nM, 0.01 µM): 55.1% and 85.0%
c-Met Inhibitory rate (%) ([1]; 100 nM, 0.1 µM): 94.1%
inhibition at 0.1 µM ([1]; 100 nM): 84.5%

COc1cc2ncnc(Oc3ccc(NC(=O)c4c5n(n(-c6ccc(F)cc6)c4=O)CCCC5)cc3C(F)(F)F)c2cc1OC [DC621101, N-(4-((6,7-dimethoxyquinazoline-4-yl)oxy)-3-trifluoromethylphenyl)-1-(4-fluorophenyl)-2-oxo-1,2,4,5,6,7-hexahydropyrazolo[1,5-a]pyridine-3-formamide]
c-Met Inhibitory rate (%) ([1]; 1 nM, 0.001 µM): 19.6%
inhibition at 0.001 µM ([1]; 1 nM): 27.2%
c-Met Inhibitory rate (%) ([1]; 10 nM, 0.01 µM): 60.9%
inhibition at 0.01 µM ([1]; 10 nM): 75%
c-Met Inhibitory rate (%) ([1]; 100 nM, 0.1 µM): 91.0%
inhibition at 0.1 µM ([1]; 100 nM): 96.5%

COc1cc2nccc(Oc3ccc(NC(=O)c4c5n(n(-c6ccccc6)c4=O)CCCC5)cc3F)c2cc1OC [DC621001, N-(4-((6,7-dimethoxyquinoline-4-yl)oxy)-3-fluorophenyl)-2-oxo-1-phenyl-1,2,4,5,6,7-hexahydropyrazolo[1,5-a]pyridine-3-formamide]
c-Met Inhibitory rate (%) ([1]; 1 nM, 0.001 µM): 51.7% and 72.4%
c-Met Inhibitory rate (%) ([1]; 10 nM, 0.01 µM): 97.6%
inhibition at 0.01 µM ([1]; 10 nM): 84.7%
c-Met Inhibitory rate (%) ([1]; 100 nM, 0.1 µM): 100%
inhibition at 0.1 µM ([1]; 100 nM): 92%
BaF3/TEL-AXL proliferation Inhibitory rate (%) (BaF3/TEL-AXL cells; 10 nM, 0.01 µM): 59.1%
BaF3/TEL-AXL proliferation Inhibitory rate (%) (BaF3/TEL-AXL cells; 100 nM, 0.1 µM): 71.3%
inhibition at 0.01 µM (BaF3/TEL-AXL cells; 10 nM): 54.9%
inhibition at 0.1 µM (BaF3/TEL-AXL cells; 100 nM): 82%

COc1cc2ncnc(Oc3ccc(NC(=O)c4c5n(n(-c6ccccc6F)c4=O)CCCC5)c(F)c3)c2cc1OC [DC621056, N-(4-((6,7-dimethoxyquinazoline-4-yl)oxy)-2-fluorophenyl)-1-(2-fluorophenyl)-2-oxo-1,2,4,5,6,7-hexahydropyrazolo[1,5-a]pyridine-3-formamide]
c-Met Inhibitory rate (%) ([1]; 10 nM, 0.01 µM): 72.8% and 49.8%
c-Met Inhibitory rate (%) ([1]; 100 nM, 0.1 µM): 94.1%
inhibition at 0.1 µM ([1]; 100 nM): 92%
BaF3/TEL-AXL proliferation Inhibitory rate (%) (BaF3/TEL-AXL cells; 1 nM, 0.001 µM): 58.8%
BaF3/TEL-AXL proliferation Inhibitory rate (%) (BaF3/TEL-AXL cells; 10 nM, 0.01 µM): 74.1%
BaF3/TEL-AXL proliferation Inhibitory rate (%) (BaF3/TEL-AXL cells; 100 nM, 0.1 µM): 84.9%
inhibition at 0.001 µM (BaF3/TEL-AXL cells; 1 nM): 45.3%
inhibition at 0.01 µM (BaF3/TEL-AXL cells; 10 nM): 70%
inhibition at 0.1 µM (BaF3/TEL-AXL cells; 100 nM): 86.6%

O=C(Nc1ccc(Oc2ncnc3[nH]cc(-c4ccccc4)c23)c(F)c1)c1c2n(n(-c3ccccc3F)c1=O)CCCC2 [DC621058, N-(3-fluoro-4-((5-phenyl-7H-pyrrolo[2,3-d]pyrimidin-4-yl)oxy)phenyl)-1-(2-fluorophenyl)-2-oxo-1,2,4,5,6,7-hexahydropyrazolo[1,5-a]pyridine-3-formamide]
c-Met Inhibitory rate (%) ([1]; 10 nM, 0.01 µM): 45.1%
inhibition at 0.01 µM ([1]; 10 nM): 54.6%
c-Met Inhibitory rate (%) ([1]; 100 nM, 0.1 µM): 83.6%
inhibition at 0.1 µM ([1]; 100 nM): 89.2%
